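In this assay, cells in 96-well plates receive the compound at five concentrations for 48 hours. Endpoints are linearly interpolated between the surrounding concentrations. GI50: concentration for 50% inhibition of growth.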 Active and inactive are the calls of the source. Rule as the data show it: active = GI50 up to about 1.1 µM and inactive = higher.
Assays:
Experiment in all cases: growth of human tumour cells (NCI), 48 h
786-0 = tested on: 786-0
A498 = tested on: A498
A549 = tested on: A549
ACHN = tested on: ACHN
BT-549 = tested on: BT-549
CAKI-1 = tested on: CAKI-1
CCRF-CEM = tested on: CCRF-CEM
COLO 205 = tested on: COLO 205
DU-145 = tested on: DU-145
EKVX = tested on: EKVX
HCC 2998 = tested on: HCC 2998
HCT-116 = tested on: HCT-116
HCT-15 = tested on: HCT-15
HL-60 = tested on: HL-60
HOP-62 = tested on: HOP-62
HOP-92 = tested on: HOP-92
HT-29 = tested on: HT-29
Hs-578T = tested on: Hs-578T
IGROV-1 = tested on: IGROV-1
K562 = tested on: K562
KM12 = tested on: KM12
M14 = tested on: M14
MCF7 = tested on: MCF7
MDA-MB-231 = tested on: MDA-MB-231
MDA-MB-435 = tested on: MDA-MB-435
MDA-N = tested on: MDA-N
MOLT-4 = tested on: MOLT-4
Malme-3M = tested on: Malme-3M
NCI-H226 = tested on: NCI-H226
NCI-H23 = tested on: NCI-H23
NCI-H460 = tested on: NCI-H460
NCI-H522 = tested on: NCI-H522
NCI/ADR-RES = tested on: NCI/ADR-RES
OVCAR-3 = tested on: OVCAR-3
OVCAR-4 = tested on: OVCAR-4
OVCAR-5 = tested on: OVCAR-5
OVCAR-8 = tested on: OVCAR-8
PC-3 = tested on: PC-3
RPMI-8226 = tested on: RPMI-8226
RXF 393 = tested on: RXF 393
SF-268 = tested on: SF-268
SF-295 = tested on: SF-295
SF-539 = tested on: SF-539
SK-MEL-28 = tested on: SK-MEL-28
SK-MEL-2 = tested on: SK-MEL-2
SK-MEL-5 = tested on: SK-MEL-5
SK-OV-3 = tested on: SK-OV-3
SN12C = tested on: SN12C
SNB-19 = tested on: SNB-19
SR = tested on: SR
T47D = tested on: T47D
TK-10 = tested on: TK-10
U-251 = tested on: U-251
UACC-257 = tested on: UACC-257
UACC-62 = tested on: UACC-62
UO-31 = tested on: UO-31
SNB-75 = tested on: SNB-75
SW-620 = tested on: SW-620
LOX IMVI = tested on: LOX IMVI

For CCn1c2ccc(O)c(C(=O)OC)c2c2cc3ccccc3c(O)c21, the GI50 (786-0) was 12.3 µM (inactive), the GI50 (A498) was 13.1 µM (inactive) and the GI50 (A549) was 16.3 µM (inactive). For the same compound, the GI50 (ACHN) was 12.6 µM (inactive), the GI50 (BT-549) was 15.2 µM (inactive) and the GI50 (CAKI-1) was 13.4 µM (inactive). For the same compound, the GI50 (CCRF-CEM) was 19 µM (inactive), the GI50 (COLO 205) was 15.3 µM (inactive) and the GI50 (DU-145) was 14.5 µM (inactive). The GI50 (EKVX) was 35 µM (inactive), the GI50 (HCC 2998) was 22.2 µM (inactive) and the GI50 (HCT-116) was 12.6 µM (inactive). For the same compound, the GI50 (HCT-15) was 15.3 µM, the GI50 (HL-60) was 20.1 µM (inactive) and the GI50 (HOP-62) was 20.2 µM (inactive). For the same compound, the GI50 (HOP-92) was 1.95 µM (inactive), the GI50 (HT-29) was 18.5 µM (inactive) and the GI50 (Hs-578T) was 7.89 µM (inactive). The GI50 (IGROV-1) was 8 µM (inactive), the GI50 (K562) was 27.9 µM (inactive) and the GI50 (KM12) was 15.3 µM (inactive). For the same compound, the GI50 (M14) was 20.7 µM (inactive), the GI50 (MCF7) was 22.5 µM (inactive) and the GI50 (MDA-MB-231) was 23.2 µM (inactive). The GI50 (MDA-MB-435) was 17 µM (inactive), the GI50 (MDA-N) was 20.5 µM (inactive) and the GI50 (MOLT-4) was 7.87 µM (inactive). The GI50 (Malme-3M) was 2.72 µM (inactive), the GI50 (NCI-H226) was 26.2 µM (inactive) and the GI50 (NCI-H23) was 16.9 µM (inactive). For the same compound, the GI50 (NCI-H460) was 14.2 µM (inactive), the GI50 (NCI-H522) was 18.3 µM (inactive) and the GI50 (NCI/ADR-RES) was 19.8 µM (inactive). The GI50 (OVCAR-3) was 14.5 µM (inactive), the GI50 (OVCAR-4) was 18.1 µM (inactive) and the GI50 (OVCAR-5) was 32.3 µM (inactive). For the same compound, the GI50 (OVCAR-8) was 17.4 µM (inactive), the GI50 (PC-3) was 20.8 µM (inactive) and the GI50 (RPMI-8226) was 10.2 µM (inactive). The GI50 (RXF 393) was 31.2 µM (inactive), the GI50 (SF-268) was 16.3 µM (inactive) and the GI50 (SF-295) was 27.5 µM (inactive). The GI50 (SF-539) was 18.7 µM (inactive), the GI50 (SK-MEL-28) was 26.2 µM (inactive) and the GI50 (SK-MEL-2) was 13.7 µM (inactive). For the same compound, the GI50 (SK-MEL-5) was 14.2 µM (inactive), the GI50 (SK-OV-3) was 10.5 µM (inactive) and the GI50 (SN12C) was 18.5 µM (inactive). For the same compound, the GI50 (SNB-19) was 33 µM (inactive), the GI50 (SR) was 17.4 µM (inactive) and the GI50 (T47D) was 11.5 µM (inactive). For the same compound, the GI50 (TK-10) was 15.9 µM (inactive), the GI50 (U-251) was 18 µM (inactive) and the GI50 (UACC-257) was 31.6 µM (inactive). For the same compound, the GI50 (UACC-62) was 23.2 µM (inactive) and the GI50 (UO-31) was 22.5 µM (inactive).
In the case of O=C1CC(=O)NC(NN2C(=O)/C(=C/c3ccc(Cl)c(Cl)c3)N=C2c2ccccc2)=N1, the GI50 (786-0) is reported as 26.9 µM (inactive), the GI50 (A498) is reported as 23.4 µM (inactive) and the GI50 (A549) is reported as 27.2 µM (inactive). The GI50 (ACHN) was 40.2 µM (inactive), the GI50 (BT-549) was 20.7 µM (inactive) and the GI50 (CAKI-1) was 85.3 µM (inactive). The GI50 (CCRF-CEM) was 11.9 µM (inactive), the GI50 (COLO 205) was 18.8 µM (inactive) and the GI50 (DU-145) was 48.2 µM (inactive). For the same compound, the GI50 (HCC 2998) was 19.7 µM (inactive), the GI50 (HCT-116) was 17.7 µM (inactive) and the GI50 (HCT-15) was 30.3 µM. The GI50 (HOP-62) was 23.9 µM (inactive), the GI50 (HOP-92) was 27 µM (inactive) and the GI50 (HT-29) was 22.9 µM (inactive). For the same compound, the GI50 (Hs-578T) was 18.4 µM (inactive), the GI50 (IGROV-1) was 31.1 µM (inactive) and the GI50 (K562) was 13.7 µM (inactive). The GI50 (KM12) was 16.4 µM (inactive), the GI50 (M14) was 28.8 µM (inactive) and the GI50 (MCF7) was 16.7 µM (inactive). For the same compound, the GI50 (MDA-MB-231) was 17.1 µM (inactive), the GI50 (MDA-MB-435) was 27 µM (inactive) and the GI50 (MDA-N) was 23.9 µM (inactive). For the same compound, the GI50 (MOLT-4) was 15.2 µM (inactive), the GI50 (Malme-3M) was 34.8 µM (inactive) and the GI50 (NCI-H226) was 32.1 µM (inactive). For the same compound, the GI50 (NCI-H23) was 26.7 µM (inactive), the GI50 (NCI-H460) was 15.7 µM (inactive) and the GI50 (NCI-H522) was 30.8 µM (inactive). The GI50 (NCI/ADR-RES) was 19.8 µM (inactive), the GI50 (OVCAR-3) was 19.1 µM (inactive) and the GI50 (OVCAR-4) was 49.3 µM (inactive). The GI50 (OVCAR-5) was 46.7 µM (inactive), the GI50 (OVCAR-8) was 34 µM (inactive) and the GI50 (PC-3) was 23.1 µM (inactive). The GI50 (RPMI-8226) was 13.6 µM (inactive), the GI50 (RXF 393) was 24.8 µM (inactive) and the GI50 (SF-268) was 24.5 µM (inactive). For the same compound, the GI50 (SF-295) was 32 µM (inactive), the GI50 (SF-539) was 20.8 µM (inactive) and the GI50 (SK-MEL-28) was 28.8 µM (inactive). For the same compound, the GI50 (SK-MEL-2) was 14.1 µM (inactive), the GI50 (SK-MEL-5) was 16.3 µM (inactive) and the GI50 (SK-OV-3) was 46.8 µM (inactive). The GI50 (SN12C) was 17.3 µM (inactive), the GI50 (SNB-75) was 24 µM (inactive) and the GI50 (SR) was 11.7 µM (inactive). The GI50 (SW-620) was 30.4 µM (inactive), the GI50 (T47D) was 47.1 µM (inactive) and the GI50 (TK-10) was 41.9 µM (inactive). For the same compound, the GI50 (U-251) was 23.9 µM (inactive), the GI50 (UACC-257) was 34.2 µM (inactive) and the GI50 (UACC-62) was 15.7 µM (inactive). For the same compound, the GI50 (UO-31) was 29.6 µM (inactive).
In the case of CN(N=O)c1nc2c(C(N)=O)ncn2s1, the GI50 (786-0) is reported as 85.1 µM (inactive), the GI50 (A498) is reported as > 100 µM (inactive) and the GI50 (A549) is reported as > 100 µM (inactive). The GI50 (ACHN) was 57.3 µM (inactive), the GI50 (BT-549) was > 100 µM (inactive) and the GI50 (CAKI-1) was 28.1 µM (inactive). The GI50 (CCRF-CEM) was 45.4 µM (inactive), the GI50 (COLO 205) was > 100 µM (inactive) and the GI50 (DU-145) was 20 µM (inactive). The GI50 (EKVX) was > 100 µM (inactive), the GI50 (HCC 2998) was 45.6 µM (inactive) and the GI50 (HCT-116) was 53 µM (inactive). For the same compound, the GI50 (HCT-15) was greater than 100 µM, the GI50 (HOP-62) was 28.8 µM (inactive) and the GI50 (HOP-92) was 32.7 µM (inactive). For the same compound, the GI50 (HT-29) was > 100 µM (inactive), the GI50 (Hs-578T) was > 100 µM (inactive) and the GI50 (IGROV-1) was 63.1 µM (inactive). The GI50 (K562) was 48.4 µM (inactive), the GI50 (KM12) was > 100 µM (inactive) and the GI50 (LOX IMVI) was 15.2 µM (inactive). For the same compound, the GI50 (M14) was 15.7 µM (inactive), the GI50 (MCF7) was 86.7 µM (inactive) and the GI50 (MDA-MB-231) was 36.3 µM (inactive). The GI50 (MDA-MB-435) was 53.2 µM (inactive), the GI50 (MDA-N) was > 100 µM (inactive) and the GI50 (MOLT-4) was > 100 µM (inactive). The GI50 (Malme-3M) was 85.7 µM (inactive), the GI50 (NCI-H226) was > 100 µM (inactive) and the GI50 (NCI-H23) was > 100 µM (inactive). For the same compound, the GI50 (NCI-H460) was 52.1 µM (inactive), the GI50 (NCI-H522) was 76.4 µM (inactive) and the GI50 (NCI/ADR-RES) was 39.7 µM (inactive). For the same compound, the GI50 (OVCAR-3) was 87.1 µM (inactive), the GI50 (OVCAR-4) was 47.9 µM (inactive) and the GI50 (OVCAR-5) was > 100 µM (inactive). The GI50 (OVCAR-8) was 30.5 µM (inactive), the GI50 (PC-3) was 91.2 µM (inactive) and the GI50 (RPMI-8226) was 45 µM (inactive). For the same compound, the GI50 (RXF 393) was > 100 µM (inactive), the GI50 (SF-268) was 55.5 µM (inactive) and the GI50 (SF-295) was 68.2 µM (inactive). For the same compound, the GI50 (SF-539) was 80.7 µM (inactive), the GI50 (SK-MEL-28) was > 100 µM (inactive) and the GI50 (SK-MEL-2) was 35.8 µM (inactive). The GI50 (SK-MEL-5) was > 100 µM (inactive), the GI50 (SK-OV-3) was 48.6 µM (inactive) and the GI50 (SN12C) was 97.7 µM (inactive). The GI50 (SNB-19) was > 100 µM (inactive), the GI50 (SNB-75) was 49 µM (inactive) and the GI50 (SR) was 48.9 µM (inactive). The GI50 (SW-620) was 46.9 µM (inactive), the GI50 (T47D) was > 100 µM (inactive) and the GI50 (TK-10) was 20 µM (inactive). The GI50 (U-251) was > 100 µM (inactive), the GI50 (UACC-257) was 94.6 µM (inactive) and the GI50 (UACC-62) was 32.7 µM (inactive). The GI50 (UO-31) was 22.2 µM (inactive).
